# Laboratory results: US20210355509A1, “ALTERNATIVE SPLICING REGULATION OF GENE EXPRESSION AND THERAPEUTIC METHODS” (THE CHILDREN'S HOSPITAL OF PHILADELPHIA, priority 2018, published 2021)
# Columns and labels:
# [1] = test system: SMN2 minigene Exon 7; test: SMN2 minigene PCR splicing assay with RG7800; assay type: cell-based, human; settings: RG7800 10 nM, 100 nM, 1 μM and 10 μM; HEK293
# Experimental: HEK293 cells were transfected with plasmids expressing the SMN2 minigene (0.3 μg) and 4 hours later treated with different doses of RG7800 (10 nM, 100 nM, 1 μM and 10 μM). 24 hours after transfection, RNA was harvested, DNAseI treated, and 1 μg of RNA was reverse transcribed to assess SMN2 minigene splicing using PCR. PCR products were separated on a 3% agarose gel and exon 7 production was quantified using the ChemiDoc Imaging System (Bio-Rad) and Imagine Lab analysis Software.
# [2] = test system: HTT; test: SMN2_CRISPRi regulated epigenetic silencing, Western blot; assay type: cell-based, human; settings: RG7800 1 μM, HEK293 cells transfected with the SMN2_CRISPRi system
# Experimental: (§1) HEK293 cells were transfected with plasmids encoding the CRISPRi silencing system (dCas9, sgRNA and MCP-Krab expression cassettes). Importantly, the dCas9 was cloned under the SMN2 splice regulated cassette to control dCas9 protein expression with RG7800. 24 hours after transfection, cells were selected using Puromicin (3 μM, 24 h), passaged onto a new plate, and treated with RG7800 (1 μM). HEK293 cells were lysed 36 h after RG7800 treatment using Passive lysis buffer (Promega, CA), and Huntingtin (HTT), Cas9 and Beta Catenin (Beta cat) protein levels were determined by Western Blot. Beta Catenin protein levels were determined as loading control. HTT, Cas9 and Beta Cat protein levels were quantified using the ChemiDoc Imaging System (Bio-Rad) and Imagine Lab analysis Software.
# [3] = test system: Cas9; test: SMN2_CRISPRi regulated Cas9 expression, Western blot; assay type: cell-based, human; settings: RG7800 1 μM, HEK293 cells transfected with the SMN2_CRISPRi system
# Experimental: as §1
# [4] = test system: SMN2 exon 7; test: SMN2/transactivator minigene exon 7 splicing, semi-quantitative RT-PCR; assay type: cell-based, human
# Text: FIGS. 4a-c show modified SMN2/transactivator minigenes express spliced RNA transcript isoforms to constitutively exclude (CSI3) or include (CSI5) exon7, influencing background expression of the optimized RNAi promoter. […] The 3′ and 5′ Exon7 splicing sites in the SMN2/transactivator minigene were modified to constitutively exclude (CSI3, 3′ modified) or include (CSI5, 5′ modified) exon 7.
# FIGS. 5a-b show splicing and activity of CSI and CSI3 minigenes in response to LIM070.
# To regulate transactivator expression, the transactivator was cloned downstream of a self-cleaving 2A peptide and the SMN2 minigene comprising exons 6-7 and the 5′ end of exon 8, and minimal intronic intervening sequences necessary to recapitulate SMN2 splicing^38 (FIG. 4a). Note that 10% of the transcripts include exon 7, similar to the native SMN2 genetic state. The transcripts produce transactivator that partially activates the RNAi expression cassette. Thus, the 3′ and 5′ Exon7 splicing sites in the SMN2/transactivator minigene were modified to constitutively exclude (CSI3, 3′ modified) or include (CSI5, 5′ modified) exon 7, which minimizes RNAi promoter background activation^39 (FIGS. 4b-c). […] Also, the entire cassette fits into rAAV.
# [5] = test system: HEK293 cells; test: De novo exon splicing in response to LMI070, RNA-seq and PCR validation; assay type: cell-based, human; settings: LMI070 25 nM, PCR
# Experimental: The following methods were used to obtain the data illustrated in FIGS. 8-15. […] 12 hours after treatment RNA was extracted using Trizol followed by DNAseI treatment. Samples were evaluated for quality control on agilent bioanalyzer and all samples had RIN values >9.8 and were sent for Illumina RiboZero Gold total RNA library preparation and sequencing with an Illumina HiSeq4000. A 150 bp Pair end sequencing reads were obtained from illumina sequencing. Fastq files obtained from the illumina platform were aligned to the Human genome GRCh38 using the STAR aligner. SAM format alignment files output from STAR were sorted, converted to BAM format and indexed using Samtools. To visualize splicing at any region in the alignment BAM files were opened in IGV and visualized using the Sashimi plot function.
# To identify regions of interest which contained high levels of differential splicing a custom R program was created. […] These files contained the raw counts obtained at each splice junction as calculated during alignment by STAR. […] 1) Read input files into R. 2) Create unique position IDs for each row (splice site) in the dataset. […] 6) sort the extracted reads from highest to lowest by Mean counts value. […]
# The following methods were used to obtain the data in FIG. 16. […] As observed on the PCR, PCR products of higher size were detected on samples treated with LM1070 (FIG. 16). […]
# [6] = LMI070 pharmacokinetics in mice, oral; assay type: in vivo; settings: 3 mg/Kg
# [7] = mice, oral, 3 mg/Kg, serum; read-out: Cmax (maximum concentration); cited from earlier work
# [8] = test system: SMN mouse model; settings: cited from earlier work
# [9] = test system: SMN2 exon 7; settings: mouse brain; cited from earlier work
SMILES,Exon 7 inclusion in the SMN2 minigene [1],HTT expression levels reduced [2],Cas9 protein levels [3],"exon 7 inclusion at brain-equivalent concentration ([4]; 120 nM, CSI and CSI3 minigenes (FIG. 5))","exon 7 inclusion in response to LMI070 ([4]; HEK293 cells, CSI and CSI3 minigenes, 20 h after LMI070 treatment)",de novo exon splicing [5],concentration in the brain [6] [nM],Cmax [7] [nM],minimal dose with therapeutic effects [8] [mg/kg],maximum dose reported to increase SMN2 exon 7 inclusion [9] [mg/kg]
CCc1nc(C)cn2nc(-c3cc(=O)n4cc(C5CCN(C)CC5)cc(C)c4n3)cc12 [RG7800],induction of Exon 7 inclusion,about 45%,increase,–,–,–,–,–,–,–
CC1(C)CC(Oc2ccc(-c3ccc(-c4cn[nH]c4)cc3O)nn2)CC(C)(C)N1 [LMI070],–,–,–,induces exon 7 inclusion,dose-responsive,novel exons are included,120,86,1,30
